# Experimental data: ChEMBL document CHEMBL1287680, “C-11 diamino cryptolepine derivatives NSC748392, NSC748393, and NSC748394: anticancer profile and G-quadruplex stabilization” (Bioorg Med Chem Lett, 2010)
# Legend:
# Nucleic Acid [1] = details: Homo sapiens
# Description: Binding affinity to human G-quadruplex DNA assessed as change in melting temperature by FRET-melting assay
# Nucleic Acid [2] = details: Homo sapiens; remark: listed apart in the source
# Description: Binding affinity to human duplex DNA assessed as change in melting temperature by FRET-melting assay
# SK-OV-3 = assay: cells; details: Homo sapiens
# Description: Anticancer activity against human SKOV3 cells
# OVCAR-4 = assay: cells; details: Homo sapiens
# Description: Anticancer activity against human OVCAR4 cells
# OVCAR-3 = assay: cells; details: Homo sapiens
# Description: Anticancer activity against human OVCAR-3 cells
# IGROV-1 = assay: cells; details: Homo sapiens
# Description: Anticancer activity against human IGROV1 cells
# UACC-62 = assay: cells; details: Homo sapiens
# Description: Anticancer activity against human UACC62 cells
# UACC-257 = assay: cells; details: Homo sapiens
# Description: Anticancer activity against human UACC257 cells
# M14 = assay: cells; details: Homo sapiens
# Description: Anticancer activity against human M14 cells
# Malme-3M = assay: cells; details: Homo sapiens
# Description: Anticancer activity against human MALME-3M cells
# LOX IMVI = assay: cells; details: Homo sapiens
# Description: Anticancer activity against human LOXIMVI cells
# U-251 = assay: cells; details: Homo sapiens
# Description: Anticancer activity against human U251 cells
# SNB-75 = assay: cells; details: Homo sapiens
# Description: Anticancer activity against human SNB75 cells
# SNB-19 = assay: cells; details: Homo sapiens
# Description: Anticancer activity against human SNB19 cells
# SF-539 = assay: cells; details: Homo sapiens
# Description: Anticancer activity against human SF539 cells
# SF-295 = assay: cells; details: Homo sapiens
# Description: Anticancer activity against human SF295 cells
# SF-268 = assay: cells; details: Homo sapiens
# Description: Anticancer activity against human SF268 cells
# NCI-H23 = assay: cells; details: Homo sapiens
# Description: Anticancer activity against human NCI-H23 cells
# HOP-92 = assay: cells; details: Homo sapiens
# Description: Anticancer activity against human HOP92 cells
# HOP-62 = assay: cells; details: Homo sapiens
# Description: Anticancer activity against human HOP62 cells
# EKVX = assay: cells; details: Homo sapiens
# Description: Anticancer activity against human EKVX cells
# SR = assay: cells; details: Homo sapiens
# Description: Anticancer activity against human SR cells
# MOLT-4 = assay: cells; details: Homo sapiens
# Description: Anticancer activity against human MOLT4 cells
# HL-60(TB) = assay: cells; details: Homo sapiens
# Description: Anticancer activity against human HL-60(TB) cells
# CCRF-CEM = assay: cells; details: Homo sapiens
# Description: Anticancer activity against human CCRF-CEM cells
# MDA-MB-468 = assay: cells; details: Homo sapiens
# Description: Anticancer activity against human MDA-MB-468 cells
# MDA-MB-435 = assay: cells; details: Homo sapiens
# Description: Anticancer activity against human MDA-MB-435 cells
# cells = details: Homo sapiens, Hs-578T
# Description: Anticancer activity against human Hs 578T cells
# MDA-MB-231 = assay: cells; details: Homo sapiens
# Description: Anticancer activity against human MDA-MB-231 cells
# NCI/ADR-RES = assay: cells; details: Homo sapiens
# Description: Anticancer activity against human NCI/ADR-RES cells
# PC-3 = assay: cells; details: Homo sapiens
# Description: Anticancer activity against human PC3 cells
# TK-10 = assay: cells; details: Homo sapiens
# Description: Anticancer activity against human TK10 cells
# A498 = assay: cells; details: Homo sapiens
# Description: Anticancer activity against human A498 cells
# in vivo = details: mouse, cancer cell lines
# Description: Toxicity in cancer cells containing hollow fiber implanted mouse
smiles,measurement,setting,value
C[n+]1c2ccccc2c(NC2CCNCC2)c2[nH]c3ccccc3c21.[Cl-],ΔTm,Nucleic Acid [1],19.9 °C
same,ΔTm,Nucleic Acid [2],15.1 °C
same,GI50,"SK-OV-3; SK-OV-3, read-out: pGI50 (converted)",0.447 µM
same,CC50,"SK-OV-3; SK-OV-3, read-out: pLC50 (converted)",77.6 µM
same,TGI,"SK-OV-3; SK-OV-3, read-out: pTGI",3.89 µM
same,GI50,"OVCAR-4; OVCAR-4, read-out: pGI50 (converted)",0.316 µM
same,CC50,"OVCAR-4; OVCAR-4, read-out: pLC50 (converted)",36.3 µM
same,TGI,"OVCAR-4; OVCAR-4, read-out: pTGI",3.8 µM
same,GI50,"OVCAR-3; OVCAR-3, read-out: pGI50 (converted)",1.45 µM
same,CC50,"OVCAR-3; OVCAR-3, read-out: pLC50 (converted)",95.5 µM
same,TGI,"OVCAR-3; OVCAR-3, read-out: pTGI",9.55 µM
same,GI50,"IGROV-1; IGROV-1, read-out: pGI50 (converted)",0.363 µM
same,CC50,"IGROV-1; IGROV-1, read-out: pLC50 (converted)",> 100 µM
same,TGI,"IGROV-1; IGROV-1, read-out: pTGI",5.01 µM
same,GI50,"UACC-62; UACC-62, read-out: pGI50 (converted)",0.2 µM
same,CC50,"UACC-62; UACC-62, read-out: pLC50 (converted)",3.63 µM
same,TGI,"UACC-62; UACC-62, read-out: pTGI",0.933 µM
same,GI50,"UACC-257; UACC-257, read-out: pGI50 (converted)",5.37 µM
same,CC50,"UACC-257; UACC-257, read-out: pLC50 (converted)",81.3 µM
same,TGI,"UACC-257; UACC-257, read-out: pTGI",24 µM
same,GI50,"M14; M14, read-out: pGI50 (converted)",3.16 µM
same,CC50,"M14; M14, read-out: pLC50 (converted)",43.7 µM
same,TGI,"M14; M14, read-out: pTGI",15.1 µM
same,GI50,Malme-3M; read-out: pGI50 (converted),1.55 µM
same,CC50,Malme-3M; read-out: pLC50 (converted),20 µM
same,TGI,Malme-3M; read-out: pTGI,4.37 µM
same,GI50,LOX IMVI; read-out: pGI50 (converted),1.7 µM
same,CC50,LOX IMVI; read-out: pLC50 (converted),49 µM
same,TGI,LOX IMVI; read-out: pTGI,5.25 µM
same,GI50,"U-251; U-251, read-out: pGI50 (converted)",0.282 µM
same,CC50,"U-251; U-251, read-out: pLC50 (converted)",> 100 µM
same,TGI,"U-251; U-251, read-out: pTGI",2.95 µM
same,GI50,"SNB-75; SNB-75, read-out: pGI50 (converted)",1.38 µM
same,CC50,"SNB-75; SNB-75, read-out: pLC50 (converted)",24.5 µM
same,TGI,"SNB-75; SNB-75, read-out: pTGI",5.37 µM
same,GI50,"SNB-19; SNB-19, read-out: pGI50 (converted)",0.275 µM
same,CC50,"SNB-19; SNB-19, read-out: pLC50 (converted)",> 100 µM
same,TGI,"SNB-19; SNB-19, read-out: pTGI",2.57 µM
same,GI50,"SF-539; SF-539, read-out: pGI50 (converted)",1.66 µM
same,CC50,"SF-539; SF-539, read-out: pLC50 (converted)",28.8 µM
same,TGI,"SF-539; SF-539, read-out: pTGI",7.41 µM
same,GI50,"SF-295; SF-295, read-out: pGI50 (converted)",0.741 µM
same,CC50,"SF-295; SF-295, read-out: pLC50 (converted)",77.6 µM
same,TGI,"SF-295; SF-295, read-out: pTGI",10.2 µM
same,GI50,"SF-268; SF-268, read-out: pGI50 (converted)",0.0457 µM
same,CC50,"SF-268; SF-268, read-out: pLC50 (converted)",42.7 µM
same,TGI,"SF-268; SF-268, read-out: pTGI",1.38 µM
same,GI50,"NCI-H23; NCI-H23, read-out: pGI50 (converted)",0.0589 µM
same,CC50,"NCI-H23; NCI-H23, read-out: pLC50 (converted)",10.2 µM
same,TGI,"NCI-H23; NCI-H23, read-out: pTGI",0.646 µM
same,GI50,"HOP-92; HOP-92, read-out: pGI50 (converted)",1.15 µM
same,CC50,"HOP-92; HOP-92, read-out: pLC50 (converted)",> 100 µM
same,TGI,"HOP-92; HOP-92, read-out: pTGI",6.92 µM
same,GI50,"HOP-62; HOP-62, read-out: pGI50 (converted)",0.525 µM
same,CC50,"HOP-62; HOP-62, read-out: pLC50 (converted)",30.9 µM
same,TGI,"HOP-62; HOP-62, read-out: pTGI",5.62 µM
same,GI50,EKVX; read-out: pGI50 (converted),0.525 µM
same,CC50,EKVX; read-out: pLC50 (converted),> 100 µM
same,TGI,EKVX; read-out: pTGI,8.32 µM
same,GI50,SR; read-out: pGI50 (converted),1.7 µM
same,CC50,SR; read-out: pLC50 (converted),> 100 µM
same,TGI,SR; read-out: pTGI,> 100 µM
same,GI50,"MOLT-4; MOLT-4, read-out: pGI50 (converted)",0.138 µM
same,CC50,"MOLT-4; MOLT-4, read-out: pLC50 (converted)",> 100 µM
same,TGI,"MOLT-4; MOLT-4, read-out: pTGI",> 100 µM
same,GI50,"HL-60(TB); HL-60, read-out: pGI50 (converted)",2.19 µM
same,CC50,"HL-60(TB); HL-60, read-out: pLC50 (converted)",> 100 µM
same,TGI,"HL-60(TB); HL-60, read-out: pTGI",> 100 µM
same,GI50,CCRF-CEM; read-out: pGI50 (converted),0.457 µM
same,CC50,CCRF-CEM; read-out: pLC50 (converted),52.5 µM
same,TGI,CCRF-CEM; read-out: pTGI,3.02 µM
same,GI50,"MDA-MB-468; MDA-MB-468, read-out: pGI50 (converted)",0.234 µM
same,CC50,"MDA-MB-468; MDA-MB-468, read-out: pLC50 (converted)",6.92 µM
same,TGI,"MDA-MB-468; MDA-MB-468, read-out: pTGI",1.58 µM
same,GI50,"MDA-MB-435; MDA-MB-435, read-out: pGI50 (converted)",2.95 µM
same,CC50,"MDA-MB-435; MDA-MB-435, read-out: pLC50 (converted)",42.7 µM
same,TGI,"MDA-MB-435; MDA-MB-435, read-out: pTGI",10.5 µM
same,GI50,cells; read-out: pGI50 (converted),0.12 µM
same,CC50,cells; read-out: pLC50 (converted),44.7 µM
same,TGI,cells; read-out: pTGI,1.12 µM
same,GI50,"MDA-MB-231; MDA-MB-231, read-out: pGI50 (converted)",1.1 µM
same,CC50,"MDA-MB-231; MDA-MB-231, read-out: pLC50 (converted)",52.5 µM
same,TGI,"MDA-MB-231; MDA-MB-231, read-out: pTGI",9.77 µM
same,GI50,NCI/ADR-RES; read-out: pGI50 (converted),> 100 µM
same,CC50,NCI/ADR-RES; read-out: pLC50 (converted),> 100 µM
same,TGI,NCI/ADR-RES; read-out: pTGI,> 100 µM
same,GI50,"PC-3; PC-3, read-out: pGI50 (converted)",1.95 µM
same,CC50,"PC-3; PC-3, read-out: pLC50 (converted)",97.7 µM
same,TGI,"PC-3; PC-3, read-out: pTGI",10.5 µM
same,GI50,"TK-10; TK-10, read-out: pGI50 (converted)",3.09 µM
same,CC50,"TK-10; TK-10, read-out: pLC50 (converted)",> 100 µM
same,TGI,"TK-10; TK-10, read-out: pTGI",14.5 µM
same,GI50,"A498; A498, read-out: pGI50 (converted)",1.62 µM
same,CC50,"A498; A498, read-out: pLC50 (converted)",26.3 µM
same,TGI,"A498; A498, read-out: pTGI",5.13 µM
same,MTD,in vivo,25 mg/kg
